Earlier results, collected in patent US20180000940A1, “INJECTABLE FORMULATIONS OF PARACETAMOL” (TROIKAA PHARMACEUTICALS LIMITED, priority 2014, published 2018).

Conditions: solution no 20: 30% propylene-glycol, 40% polyethylene-glycol 400, 30% water; 20° C.

SMILES: CC(=O)Nc1ccc(O)cc1 [paracetamol, Paracetamol]
- Amount of paracetamol that can be dissolved: about 200 mg/ml
